A compilation of properties of binary mixtures (doi:10.1007/s10953-022-01241-4)

Assay: xn = mol fraction of the nth substance listed
Conditions: 100 kPa

C[P+](c1ccccc1)(c1ccccc1)c1ccccc1.[Br-] + OCCO
viscosity [mPa·s]
Conditions | 293.15 K | 298.15 K | 303.15 K | 308.15 K | 313.15 K | 318.15 K | 323.15 K
x1 = 0.1 | 45.5 | – | 27.4 | 22.37 | – | 15.1 | 12.6
x1 = 0.13 | 56.5 | 43.3 | 33.8 | 27.1 | 21.86 | 18.05 | 14.94
x1 = 0.17 | 74.7 | 55.7 | 43.5 | 34.5 | 27.3 | 21.01 | 17.81
x1 = 0.2 | 100.6 | 74.5 | 56.2 | 43.3 | 34 | 27.2 | 21.91
x1 = 0.25 | 148.7 | 106.7 | 78.9 | 60 | 46.4 | 36.4 | 29
x1 = 0.33 | 225 | 158 | – | 85.5 | – | 50.5 | 39.6
